Laboratory results from patent publication US9441023B2, “Peptide YY analogs” (GlaxoSmithKline Intellectual Property Development Limited, priority 2013, dated 2016).
Where no end group is shown, it is not given here.

Assays:
[1] = cumulative food intake, lean mice (Model A), BioDaQ system; format: in vivo; conditions: lean male C57BL/6 mice, 1 mg/kg s.c., relative to vehicle, negative = reduction
Description: (§1) Cumulative food intake after 6 h was determined for the PYY analogs in either lean (Model A) or diet-induced obese (DIO) (Model B) C57BL/6 mice in a BioDaQ system for continuous monitoring of food intake (Research Diets Inc., New Brunswick, N.J.). […] Mice were placed singly into the BioDaQ cages and acclimatized for a minimum of 6 days and were allowed ad libitum access to food and water. Approximately 1 hour prior to lights-out, animals were dosed subcutaneously with either vehicle (20 mM Acetate buffer, pH 4.9 or 20% DMSO in water) or analogs dissolved in vehicle (1 mg/kg) (8 animals per group). Once all animals have been dosed, feeder gates were opened providing ad-libitum access to food. Continuous food intake was monitored and collected for 15 hours. […] P-values <0.05 were considered to indicate a significant difference between treatment groups.

[2] = biological target: T1, human Neuropeptide Y receptor type 2 (Homo sapiens, UniProt P49146); assay: melanophore assay, potency at human Neuropeptide Y receptor type 2; format: cell-based; conditions: Table 1, read-out: hNPY Y2 pEC50 (converted)
T1 construct: expressed in transfected cells; host or cells: melanophores (own knowledge: Xenopus laevis melanophores transfected with the receptor, as in the cited protocol)
T1 sequence (P49146 1-381): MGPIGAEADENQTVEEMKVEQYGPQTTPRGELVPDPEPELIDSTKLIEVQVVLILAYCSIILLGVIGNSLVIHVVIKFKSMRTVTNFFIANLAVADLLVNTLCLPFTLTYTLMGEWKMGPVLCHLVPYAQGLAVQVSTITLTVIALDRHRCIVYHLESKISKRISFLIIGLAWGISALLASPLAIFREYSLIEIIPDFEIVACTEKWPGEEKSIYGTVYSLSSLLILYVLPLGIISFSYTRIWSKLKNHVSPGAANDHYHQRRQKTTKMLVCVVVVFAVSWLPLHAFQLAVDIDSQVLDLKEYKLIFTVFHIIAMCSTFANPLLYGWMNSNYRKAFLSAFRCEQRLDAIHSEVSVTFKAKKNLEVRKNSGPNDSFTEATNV

[3] = cumulative food intake, diet-induced obese mice (Model B), BioDaQ system; format: in vivo; conditions: Table 1; DIO male C57BL/6 mice, 1 mg/kg s.c., cumulative food intake after 6 h, relative to vehicle; negative = reduction
Description: as §1

[4] = chronic (26 days) efficacy study in diabetic ZDF rats: glucose and HbA1c; format: in vivo, Zucker Diabetic Fatty (ZDF) rat
Text: Male ZDF rats were 12 weeks old at the start of the study (Charles River, Inc., Boston, Mass.). […] Baseline fat mass and non-fat mass measurements were taken 3 days before the start of peptide infusion and on day 26 of treatment using a QMR instrument (Echo Medical Systems, Houston, Tex.). […] P-values <0.05 were considered to indicate a significant difference between treatment groups.

[5] = chronic (41 days) efficacy study in DIO Long Evans rats: body weight, body composition, food intake; format: in vivo, Long Evans rat; conditions: DIO LE rats
Description: Rats were 17 weeks old at the start of the study. The rats were housed 1 per cage and given ad libitum access to TD.95217 chow and water, maintained on a 12 h light/dark cycle from 5:00 AM to 5:00 PM at 21° C. and 50% relative humidity and allowed to acclimate for at least 7 days prior to baseline measurements. Baseline fat mass and non-fat mass measurements were taken 3 days before the start of peptide infusion and on day 40 of treatment using a QMR instrument (Echo Medical Systems, Houston, Tex.). […] Each rat was implanted with two osmotic pumps subcutaneously in the scapula region containing vehicle or peptide according to their treatment group. Body weight and food intake were measured twice per week beginning three days before the 41-day treatment period. On day 41 of treatment, whole blood was collected by cardiac stick under isoflurane anesthesia. Plasma and serum were then prepared from the whole blood for serum chemistry analysis. All the data are presented as mean±SEM. The data were analyzed in either Prism (GraphPad Software, Inc., La Jolla, Calif.) or Excel using a Student's T-test to compare each group to the appropriate control group. P-values <0.05 were considered to indicate a significant difference between treatment groups.

[6] = s.c. infusion, used as study dose

CC(C)C[C@H](NC(=O)[C@H](CC(=O)O)NC(=O)[C@H](C)NC(=O)[C@H](Cc1ccc(O)cc1)NC(=O)[C@H](Cc1ccc(O)cc1)NC(=O)[C@H](CCCNC(=N)N)NC(=O)[C@H](CC(N)=O)NC(=O)[C@H](Cc1c[nH]c2ccccc12)NC(=O)[C@H](CCC(=O)O)NC(=O)[C@H](CCC(=O)O)NC(=O)[C@@H]1CCCN1C(=O)[C@H](CO)NC(=O)[C@H](C)NC(=O)[C@H](CC(=O)O)NC(=O)[C@H](CCCCN)NC(=O)CNC(=O)[C@@H]1CCCN1C(=O)[C@H](C)NC(=O)[C@H](CCC(=O)O)NC(=O)[C@@H]1CCCN1C(=O)[C@H](CCCCN)NC(=O)[C@@H]1CCCN1)C(=O)N[C@@H](CCCNC(=N)N)C(=O)N[C@@H](CCCCN)C(=O)N[C@@H](Cc1ccc(O)cc1)C(=O)N[C@@H](CC(C)C)C(=O)N[C@@H](CC(N)=O)C(=O)N[C@@H](Cc1c[nH]c2ccccc12)C(=O)N[C@@H](CC(C)C)C(=O)N[C@H](C(=O)N[C@@H](CCCNC(=N)N)C(=O)N[C@@H](CCC(N)=O)C(=O)N[C@@H](CCCNC(=N)N)C(=O)N[C@@H](Cc1ccc(O)cc1)C(N)=O)[C@@H](C)O [Example 4]
% reduction in food intake, model A ([1]; Table 1, cumulative food intake after 6 h): −83%
EC50 [2]: 20 pM

CC(C)C[C@H](NC(=O)[C@H](CO)NC(=O)[C@H](C)NC(=O)[C@H](Cc1ccc(O)cc1)NC(=O)[C@H](Cc1ccc(O)cc1)NC(=O)[C@H](CCCNC(=N)N)NC(=O)[C@H](CC(N)=O)NC(=O)[C@H](Cc1c[nH]c2ccccc12)NC(=O)[C@H](CCC(=O)O)NC(=O)[C@H](CCC(=O)O)NC(=O)[C@@H]1CCCN1C(=O)[C@H](CO)NC(=O)[C@H](C)NC(=O)[C@H](CC(=O)O)NC(=O)[C@H](CCCCN)NC(=O)CNC(=O)[C@@H]1CCCN1C(=O)[C@H](Cc1c[nH]cn1)NC(=O)[C@H](CCC(=O)O)NC(=O)[C@@H]1CCCN1C(=O)[C@H](CCCCN)NC(=O)[C@@H]1CCCN1)C(=O)N[C@@H](CCCNC(=N)N)C(=O)N[C@@H](CCCCN)C(=O)N[C@@H](Cc1ccc(O)cc1)C(=O)N[C@@H](CC(C)C)C(=O)N[C@@H](CC(N)=O)C(=O)N[C@@H](Cc1c[nH]c2ccccc12)C(=O)N[C@H](C(=O)N[C@H](C(=O)N[C@@H](CCCNC(=N)N)C(=O)N[C@@H](CCC(N)=O)C(=O)N[C@@H](CCCNC(=N)N)C(=O)N[C@@H](Cc1ccc(O)cc1)C(N)=O)[C@@H](C)O)C(C)C [Example 25]
% reduction in food intake, model B [3]: −68%

PKPVAPGCDASPAELNRQYSDLRNYWNLVTRQRY-NH2 [Peptide 15]
% reduction in food intake, model A ([1]; Table 2, 6 h time point): −17%

PYY(3-36)NH2
ΔΔGlucose ([4]; 26 days, change from baseline and vehicle control, ED20 doses): −33.1 ± 17^ mg/dL
weight loss vs. vehicle ([5]; 40 days, s.c. osmotic pumps, ED50 doses): −1.3%
inhibition of cumulative food intake ([5]; chronic infusion, vs. vehicle control): −0.7%

exendin-4
ED20 for HbA1c lowering [4, 6]: 0.0055 mg/kg/day
ED50 for weight loss [5, 6]: 0.15 mg/kg/day
